Measured values from publication PMC4076210, “Discovery of Novel AKT Inhibitors with Enhanced Anti-Tumor Effects in Combination with the MEK Inhibitor” (PLoS ONE, 2014).

Test system: solid tumor cell lines
Assay: 3-day proliferation assay (CellTiter-Glo)
Assay type: cell-based, human
Conditions: for IC50: Homo sapiens
Outline: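 Growth was measured by CellTiter-Glo relative to untreated (DMSO) controls. EC50 came from 4- or 6-parameter curve fits.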

Compound: Cn1ncc(Cl)c1-c1cc(C(=O)N[C@H](CN)Cc2ccc(F)c(F)c2)oc1Cl [GSK2141795]
- solid tumor cell lines with EC50<1 µM (178 cell lines, 3 days, CTG): 36%
- IC50 (22Rv1, 22Rv1, Prostate): 244 nM
- IC50 (647-V, 647V, Bladder): 7560 nM
- IC50 (786-0, 786-O, Kidney): 577 nM
- IC50 (A 172, A172, Brain): 5700 nM
- IC50 (A204, A204, Sarcoma): 1060 nM
- IC50 (A549, A549, Lung): 1540 nM
- IC50 (A673, A673, Sarcoma): 3400 nM
- IC50 (A2780, A2780, Ovary): 2300 nM
- IC50 (A-375, A375, Skin): 13800 nM
- IC50 (A-427, A427, Lung): 1960 nM
- IC50 (ACHN, Kidney): 1480 nM
- IC50 (AGS, Stomach): 491 nM
- IC50 (BE(2)-C, BE2C, Neuroblastoma): 664 nM
- IC50 (BFTC-905, BFTC905, Bladder): 1380 nM
- IC50 (BT-20, BT20, Breast): 79 nM
- IC50 (BXPC-3, BXPC3, Pancreas): 17200 nM
- IC50 (C3A, Liver): 966 nM
- IC50 (C32TG, Skin): 537 nM
- IC50 (C-33-A, C-33A, Cervix): 238 nM
- IC50 (C-41, Cervix): 15500 nM
- IC50 (CAL-27, CAL27, Head & Neck): 6590 nM
- IC50 (CAL-62, CAL62, Thyroid): 8050 nM
- IC50 (CCF-STTG1, CCFSTTG1, Brain): 164 nM
- IC50 (CGTH-W-1, CGTHW1, Thyroid): 2100 nM
- IC50 (CHL-1, CHL1, Skin): 3040 nM
- IC50 (CHP-212, CHP212, Neuroblastoma): 595 nM
- IC50 (COLO 205, COLO205, Colon): 3680 nM
- IC50 (COLO 320DM, COLO320DM, Colon): 698 nM
- IC50 (COLO 704, COLO704, Ovary): 104 nM
- IC50 (COR-L23, CORL23, Lung): 5510 nM
- IC50 (Calu-3, CALU3, Lung): 850 nM
- IC50 (Calu-6, CALU6, Lung): 3720 nM
- IC50 (Caov-3, CAOV3, Ovary): 4230 nM
- IC50 (Capan-2, Capan2, Pancreas): 4230 nM
- IC50 (DBTRG-05MG, DBTRG05MG, Brain): 3690 nM
- IC50 (DKMG, Brain): 946 nM
- IC50 (DLD-1, DLD1, Colon): 5920 nM
- IC50 (DU-145, DU145, Prostate): 3460 nM
- IC50 (DU-4475, DU4475, Breast): 1760 nM
- IC50 (DoTc2-4510, DoTc24510, Cervix): 1380 nM
- IC50 (EFM-19, EFM19, Breast): 49 nM
- IC50 (EKVX, Lung): 3910 nM
- IC50 (ES2, Ovary): 1750 nM
- IC50 (FaDu, Head & Neck): 9180 nM
- IC50 (G-401, G401, Head & Neck): 473 nM
- IC50 (GCT, Sarcoma): 3200 nM
- IC50 (H4, Brain): 1630 nM
- IC50 (HCC70, HCC70, Breast): 38 nM
- IC50 (HCC1954, HCC1954, Breast): 117 nM
- IC50 (HCC 2998, HCC2998, Colon): 1400 nM
- IC50 (HCT-116, HCT116, Colon): 3990 nM
- IC50 (HMCB, Skin): 2820 nM
- IC50 (HN5, Head & Neck): 1990 nM
- IC50 (HOS, Sarcoma): 1180 nM
- IC50 (HPAF-II, HPAFII, Pancreas): 4330 nM
- IC50 (HT3, Cervix): 1450 nM
- IC50 (HT-29, HT29, Colon): 1040 nM
- IC50 (HT-1080, HT1080, Sarcoma): 3460 nM
- IC50 (HUVEC, Normal Endothelial): 3180 nM
- IC50 (HeLa, Cervix): 5720 nM
- IC50 (Hep3B, Liver): 154 nM
- IC50 (Hs746T, Stomach): 1090 nM
- IC50 (IGROV-1, IGROV1, Ovary): 21 nM
- IC50 (J82, Bladder): 783 nM
- IC50 (KATO III, KATOIII, Stomach): 255 nM
- IC50 (KHOS-240S, KHOS240S, Sarcoma): 7400 nM
- IC50 (KM12, KM12, Colon): 3270 nM
- IC50 (KPL-1, KPL1, Breast): 1390 nM
- IC50 (KYSE-30, KYSE30, Oesophagus): 3210 nM
- IC50 (LNCaP, Prostate): 57 nM
- IC50 (LS174T, Colon): 1360 nM
- IC50 (LS-1034, LS1034, Colon): 1640 nM
- IC50 (M14, Skin): 1880 nM
- IC50 (MC-IXC, MCIXC, Neuroblastoma): 282 nM
- IC50 (MCF7, MCF7, Breast): 139 nM
- IC50 (MCF-10A, MCF10A, Normal Breast): 528 nM
- IC50 (MDA-MB-175-VII, MDAMB175-VII, Breast): 86 nM
- IC50 (MDA-MB-231, MDAMB231, Breast): 7620 nM
- IC50 (MDA-MB-453, MDAMB453, Breast): 474 nM
- IC50 (MDA-MB-468, MDAMB468, Breast): 369 nM
- IC50 (MES-SA, MESSA, Sarcoma): 342 nM
- IC50 (MIA PaCa-2, MiaPaCa, Pancreas): 871 nM
- IC50 (NCI-H69, NCIH69, Lung): 648 nM
- IC50 (NCI-H82, NCIH82, Lung): 15100 nM
- IC50 (NCI-H146, NCIH146, Lung): 7770 nM
- IC50 (NCI-H157, NCIH157, Lung): 1340 nM
- IC50 (NCI-H187, NCIH187, Lung): 115 nM
- IC50 (NCI-H209, NCI-H209, Lung): 853 nM
- IC50 (NCI-H226, NCIH226, Lung): 2760 nM
- IC50 (NCI-H292, NCIH292, Lung): 2870 nM
- IC50 (NCI-H322, NCIH322, Lung): 4710 nM
- IC50 (NCI-H358, NCI-H358, Lung): 635 nM
- IC50 (NCI-H446, NCIH446, Lung): 256 nM
- IC50 (NCI-H460, NCIH460, Lung): 1940 nM
- IC50 (NCI-H508, NCIH508, Lung): 159 nM
- IC50 (NCI-H520, NCIH520, Lung): 200 nM
- IC50 (NCI-H630, NCIH630, Lung): 3080 nM
- IC50 (NCI-H661, NCIH661, Lung): 3300 nM
- IC50 (NCI-H716, NCIH716, Colon): 1640 nM
- IC50 (NCI-H747, NCIH747, Lung): 474 nM
- IC50 (NCI-H1563, NCIH1563, Lung): 140 nM
- IC50 (NCI-H1792, NCIH1792, Lung): 2840 nM
- IC50 (NCI-H2030, NCIH2030, Lung): 3160 nM
- IC50 (NCI-H2052, NCIH2052, Lung): 1590 nM
- IC50 (NCI-H2081, NCIH2081, Lung): 507 nM
- IC50 (NCI-H2122, NCIH2122, Lung): 1910 nM
- IC50 (NCI-H2170, NCI-H2170, Lung): 3190 nM
- IC50 (NCI-H2228, NCIH2228, Lung): 409 nM
- IC50 (NCI-N87, NCIN87, Stomach): 568 nM
- IC50 (NCI/ADR-RES, NCIADRRES, Breast): 8010 nM
- IC50 (OE19, OE19, Oesophagus): 2280 nM
- IC50 (OE21, OE21, Oesophagus): 111 nM
- IC50 (OE33, OE33, Oesophagus): 4280 nM
- IC50 (OV-90, OV90, Ovary): 2080 nM
- IC50 (OVCAR-3, OVCAR3, Ovary): 3150 nM
- IC50 (OVCAR-4, OVCAR4, Ovary): 29300 nM
- IC50 (OVCAR-5, OVCAR5, Ovary): 5270 nM
- IC50 (PANC-1, Panc1, Pancreas): 2220 nM
- IC50 (PC3, Prostate): 1390 nM
- IC50 (PL45, PL45, Pancreas): 6100 nM
- IC50 (Panc 02.03, Panc02.03, Pancreas): 10700 nM
- IC50 (RD, Sarcoma): 6290 nM
- IC50 (RD-ES, RDES, Sarcoma): 808 nM
- IC50 (RKO, Colon): 676 nM
- IC50 (SAOS-2, SAOS2, Sarcoma): 2370 nM
- IC50 (SCC12, SCC12, Head & Neck): 1290 nM
- IC50 (SCC-9, SCC9, Head & Neck): 2390 nM
- IC50 (SCC-13, SCC-13, Head & Neck): 23700 nM
- IC50 (SCC-15, SCC15, Head & Neck): 1980 nM
- IC50 (SCC-25, SCC-25, Head & Neck): 2480 nM
- IC50 (SCLC3, Lung): 54 nM
- IC50 (SF-295, SF295, Brain): 373 nM
- IC50 (SF-539, SF539, Brain): 388 nM
- IC50 (SH4, Skin): 5520 nM
- IC50 (SHP77, SHP77, Lung): 3100 nM
- IC50 (SJRH30, SJRH30, Sarcoma): 284 nM
- IC50 (SK-BR-3, SKBR3, Breast): 96 nM
- IC50 (SK-LMS-1, SKLMS1, Sarcoma): 5870 nM
- IC50 (SK-MEL-1, SKMEL1, Skin): 2500 nM
- IC50 (SK-MEL-28, SKMEL28, Skin): 1610 nM
- IC50 (SK-MES-1, SKMES-1, Lung): 2180 nM
- IC50 (SK-N-AS, SKNAS, Neuroblastoma): 3400 nM
- IC50 (SK-OV-3, SKOV3, Ovary): 435 nM
- IC50 (SK-UT-1, SKUT1, Sarcoma): 202 nM
- IC50 (SKNF1, Neuroblastoma): 239 nM
- IC50 (SN12C, Kidney): 11300 nM
- IC50 (SNB-75, SNB75, Brain): 449 nM
- IC50 (SNU1, SNU1, Stomach): 1420 nM
- IC50 (SNU-5, SNU5, Stomach): 7810 nM
- IC50 (SNU-16, SNU16, Stomach): 7200 nM
- IC50 (SNU-398, SNU398, Liver): 13400 nM
- IC50 (SNU-449, SNU449, Liver): 6050 nM
- IC50 (SW48, SW48, Colon): 328 nM
- IC50 (SW480, SW480, Colon): 10300 nM
- IC50 (SW579, SW579, Thyroid): 957 nM
- IC50 (SW684, SW684, Sarcoma): 336 nM
- IC50 (SW756, SW756, Cervix): 8290 nM
- IC50 (SW780, SW780, Bladder): 4960 nM
- IC50 (SW872, SW872, Sarcoma): 289 nM
- IC50 (SW900, SW900, Lung): 8220 nM
- IC50 (SW1088, SW1088, Brain): 532 nM
- IC50 (SW1417, SW1417, Colon): 1360 nM
- IC50 (SW1783, SW1783, Brain): 182 nM
- IC50 (SW1990, SW1990, Pancreas): 9150 nM
- IC50 (Skut1B, Sarcoma): 10 nM
- IC50 (T47D, T-47D, Breast): 63 nM
- IC50 (T84, Colon): 2240 nM
- IC50 (TE 381.T, TE381T, Sarcoma): 834 nM
- IC50 (TK-10, TK10, Kidney): 3330 nM
- IC50 (U20S, Sarcoma): 23200 nM
- IC50 (U138-MG, U138MG, Brain): 1160 nM
- IC50 (U-87 MG, U87MG, Brain): 3320 nM
- IC50 (U-251, U251, Brain): 1220 nM
- IC50 (UACC-62, UACC62, Skin): 1230 nM
- IC50 (UACC-257, UACC257, Skin): 2990 nM
- IC50 (UMUC3, UMUC3, Bladder): 5830 nM
- IC50 (YAPC, Pancreas): 10300 nM
- IC50 (ZR-75-1, ZR75-1, Breast): 33 nM
